Test results taken from ChEMBL document CHEMBL1201862, “PubChem BioAssay data set” (2004).
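1) Cells in 96-well plates. 2) Compound, 48 h, 5 concentrations. 3) Linear interpolation between surrounding doses. 4) Unreached endpoint = highest concentration. Abbreviation: GI50, concentration required for 50% inhibition of growth.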 The source made the active and inactive calls. Cut-off read from the data, not from the text of the source: active = GI50 up to about 1.1 µM and inactive = higher.

Tests used:
Experiment in all cases: growth of human tumour cells (NCI), 48 h
MDA-N = system: MDA-N
K562 = system: K562
HCT-116 = system: HCT-116
CAKI-1 = system: CAKI-1
M14 = system: M14
NCI-H23 = system: NCI-H23
DU-145 = system: DU-145
SK-MEL-5 = system: SK-MEL-5
HOP-62 = system: HOP-62
OVCAR-8 = system: OVCAR-8
M19-MEL = system: M19-MEL
HL-60 = system: HL-60
SNB-75 = system: SNB-75
TK-10 = system: TK-10
OVCAR-5 = system: OVCAR-5
SF-268 = system: SF-268
SF-539 = system: SF-539
SK-MEL-28 = system: SK-MEL-28
CCRF-CEM = system: CCRF-CEM
SK-MEL-2 = system: SK-MEL-2

Measured: GI50

CCN(CC)CCCNc1ccc2nnn3c4ccc(O)cc4c(=O)c1c23
inactive: MDA-N 8.71 µM | K562 7.23 µM | HCT-116 1.15 µM | CAKI-1 4.08 µM | M14 9.27 µM | NCI-H23 11.2 µM | DU-145 11.9 µM | SK-MEL-5 7.55 µM | HOP-62 10.7 µM | OVCAR-8 2.97 µM | M19-MEL 13.8 µM | HL-60 5.55 µM | SNB-75 7.48 µM | TK-10 3.28 µM | OVCAR-5 13.8 µM | SF-268 5.3 µM | SF-539 10.3 µM | SK-MEL-28 18 µM | CCRF-CEM 2.29 µM | SK-MEL-2 15.1 µM
